Results published in patent publication US20240139188A1, “Arylamide Compounds For Treatment And Prevention Of Fungal Infections” (priority 2022, published 2024).
≈ marks a conversion by molar mass, not a printed value.

How the values were obtained:
A. fumigatus = experiment: Protein kinase inhibitor (PKI) library screen with or without BRI; conditions: for growth, PKI (20 μM): PKI 20 μM alone; for growth, PKI (20 μM) + BRI (20 μM): PKI 20 μM together with BRI 20 μM; for activity at 20 µM: Aspergillus fumigatus, 48 h, read-out: growth, PKI (20 μM)
Experimental: A protein kinase inhibitors (PKI) library was also screened in combination with BRI. In total, 58 PKI were analyzed. Briefly, 100 μL of liquid MM containing 2.5×10^3 conidia/mL of the A. fumigatus wild-type strain plus 10% alamar blue was inoculated with increasing concentration of PKI (5-80 μM) in the presence (or not) of BRI (20μM) and incubated 48 hours at 37° C. without shaking. […] Plates were incubated for 48 hours at 37° C. without shaking. All experiments containing alamar blue were, after 48 hours incubation, read spectrophotometically by fluorescence and analyzed as previously described. Experiments were repeated at least three times.
To assess the mechanism of action of BRI, a collection of 58 protein kinase inhibitors (PKI, at a concentration of 20 μM; Table 4) was screened for A. fumigatus growth and corresponding metabolic activity alone or together with 20 μM BRI (Table 4).

Aspergillus fumigatus = experiment: In vitro susceptibility (MIC), macrobroth dilution; assay type: cell-based; conditions: A. fumigatus 10AF, drug alone

Row | Molecule | growth, PKI (20 μM) (A. fumigatus) | growth, PKI (20 μM) + BRI (20 μM) (A. fumigatus) | activity at 20 µM (A. fumigatus) [%] | MIC50 (Aspergillus fumigatus; lowest concentration causing 50% decrease in growth vs untreated control) [µg/mL] | MIC100 (Aspergillus fumigatus; lowest concentration without growth) [µg/mL]
1 | CCOc1cc(N2CCC(O)CC2)ccc1Nc1ncc2c(n1)N(C)c1ccccc1C(=O)N2C [XMD8 + 92] | ++ (++: growth ≥80% compared to no treatment) | ++ (++: growth ≥80% compared to no treatment) |  |  | 
2 | C[C@@]1(c2ncncc2F)NC(=O)c2cc(-c3cn[nH]c3)ccc21 [LY3177833] | ++ (++: growth ≥80% compared to no treatment) | ++ (++: growth ≥80% compared to no treatment) |  |  | 
3 | Cc1nc(Nc2n[nH]c3c2CN(C(=O)N[C@H](CN(C)C)c2ccccc2)C3(C)C)c2sccc2n1 [PF + 3758309] | ++ (++: growth ≥80% compared to no treatment) | ++ (++: growth ≥80% compared to no treatment) |  |  | 
4 | CC1(N)CCN(c2cccnc2NC(=O)c2nc(-c3ncccc3C(F)(F)F)cnc2N)CC1 [darovasertib] |  | ++ (++: growth ≥80% compared to no treatment) | > 80 |  | 
5 | NS(=O)(=O)c1ccc(N/N=C2\C(=O)Nc3ccc(C(=O)NCCCn4ccnc4)cc32)cc1 [GW290597X] | ++ (++: growth ≥80% compared to no treatment) | ++ (++: growth ≥80% compared to no treatment) |  |  | 
6 | CNC(=O)c1cccc(-c2ccc3c(N4CCOC[C@@H]4C)nc(N4CCOC[C@@H]4C)nc3n2)c1 [vistusertib] |  | ++ (++: growth ≥80% compared to no treatment) | > 80 |  | 
7 | N#Cc1ccc2[nH]c(O)c(-c3ccc(CN4CCOCC4)cn3)c2c1 [AZD1080] |  | ++ (++: growth ≥80% compared to no treatment) | > 80 |  | 
8 | O=C(O)c1ccc2c(c1)nc(Nc1cccc(Cl)c1)c1cnccc12 [CX + 4945] | ++ (++: growth ≥80% compared to no treatment) | ++ (++: growth ≥80% compared to no treatment) |  |  | 
9 | COc1ccc(-c2ccc3c(N4CCOC[C@@H]4C)nc(N4CCOC[C@@H]4C)nc3n2)cc1CO [AZD + 8055] | ++ (++: growth ≥80% compared to no treatment) | ++ (++: growth ≥80% compared to no treatment) |  |  | 
10 | CC(C)(C)Cn1c(N)nc2ccc(-c3[nH]c(C(C)(C)C)nc3-c3ccc(F)cc3)nc21 [ralimetinib] |  | ++ (++: growth ≥80% compared to no treatment) | > 80 |  | 
11 | O=C1Nc2ccc(I)cc2C1=Cc1cc(Br)c(O)c(Br)c1 [GW305074X] | ++ (++: growth ≥80% compared to no treatment) | ++ (++: growth ≥80% compared to no treatment) |  |  | 
12 | CNc1ncc2cc(-c3ccc(-c4cccc(C)n4)cc3Cl)c(=O)n(C[C@H]3OC[C@H](N)CO3)c2n1 [G5555] |  | ++ (++: growth ≥80% compared to no treatment) | > 80 |  | 
13 | CCc1cncnc1N1CCN(Cc2nc3ccc(C(F)(F)F)cc3[nH]2)CC1 [PF + 4708671] | ++ (++: growth ≥80% compared to no treatment) | ++ (++: growth ≥80% compared to no treatment) |  |  | 
14 | NS(=O)(=O)c1ccc(N/N=C2\C(=O)Nc3ccc(C(=O)NCc4ccncc4)cc32)cc1 [GW300657X] | ++ (++: growth ≥80% compared to no treatment) | ++ (++: growth ≥80% compared to no treatment) |  |  | 
15 | Clc1ccc(C2(c3ccc(-c4cn[nH]c4)cc3)CCNCC2)cc1 [AT7867] | ++ (++: growth ≥80% compared to no treatment) | ++ (++: growth ≥80% compared to no treatment) |  |  | 
16 | COc1ccc2[nH]c3c4[nH]c5ccc(OC)cc5c4c4c(c3c2c1)C(=O)NC4=O [GW296115X] | ++ (++: growth ≥80% compared to no treatment) | ++ (++: growth ≥80% compared to no treatment) |  |  | 
17 | Cc1cnc(-c2cnc(NCCNc3ccc(C#N)cn3)nc2-c2ccc(Cl)cc2Cl)[nH]1 [CHIR + 99021] | ++ (++: growth ≥80% compared to no treatment) | ++ (++: growth ≥80% compared to no treatment) |  |  | 
18 | C[C@@H](c1ncncc1F)[C@](O)(Cn1cncn1)c1ccc(F)cc1F [Voriconazole (VOR)] |  |  |  | 0.125 (≈ 0.358 µM) | 1 (≈ 2.86 µM)
19 | O=C(Nc1ccc2[nH]nc(-c3ccncc3)c2c1)[C@@H]1CCN(CC(=O)N2CCN(c3ccc(-c4ncccn4)cc3)CC2)C1 [SCH772984] |  | ++ (++: growth ≥80% compared to no treatment) | > 80 |  | 
20 | CC(C)COC(=O)c1ccc2c(c1)/C(=C/Nc1ccc(S(N)(=O)=O)cc1)C(=O)N2 [GW416981X] | ++ (++: growth ≥80% compared to no treatment) | ++ (++: growth ≥80% compared to no treatment) |  |  | 
21 | CCc1nc(-c2cccc(C)c2)c(-c2ccnc(NC(=O)c3ccccc3)c2)s1 [TAK + 715] | ++ (++: growth ≥80% compared to no treatment) | ++ (++: growth ≥80% compared to no treatment) |  |  | 
22 | O=c1[nH]c(C2CCCN2)nc2c1oc1ccc(Cl)cc12 (stereo not drawn) [XL413] | ++ (++: growth ≥80% compared to no treatment) | ++ (++: growth ≥80% compared to no treatment) |  |  | 
23 | O=C(NCCCNc1nc(Nc2cccc(NC(=O)N3CCCC3)c2)ncc1I)c1cccs1 [BX + 795] | ++ (++: growth ≥80% compared to no treatment) | ++ (++: growth ≥80% compared to no treatment) |  |  | 

Row | Molecule | growth, PKI (20 μM) (A. fumigatus) | growth, PKI (20 μM) + BRI (20 μM) (A. fumigatus) | activity at 20 µM (A. fumigatus) [%] | MIC50 (Aspergillus fumigatus; lowest concentration causing 50% decrease in growth vs untreated control) [µg/mL] | MIC100 (Aspergillus fumigatus; lowest concentration without growth) [µg/mL]
24 | C[S+]([O-])c1ccc(-c2nc(-c3ccc(F)cc3)c(-c3ccncc3)[nH]2)cc1 (stereo not drawn) [SB + 203580] | ++ (++: growth ≥80% compared to no treatment) | ++ (++: growth ≥80% compared to no treatment) |  |  | 
25 | MK + 8353 | ++ (++: growth ≥80% compared to no treatment) | ++ (++: growth ≥80% compared to no treatment) |  |  | 
26 | COc1cc(F)c(F)c(Nc2ccc(I)cc2F)c1NS(=O)(=O)C1(C[C@H](O)CO)CC1 [refametinib] |  | ++ (++: growth ≥80% compared to no treatment) | > 80 |  | 
27 | LY + 2584702 | ++ (++: growth ≥80% compared to no treatment) | ++ (++: growth ≥80% compared to no treatment) |  |  | 
28 | Cn1cc(C2=C(c3cn(C4CCN(Cc5ccccn5)CC4)c4ccccc34)C(=O)NC2=O)c2ccccc21 [enzastaurin] |  | ++ (++: growth ≥80% compared to no treatment) | > 80 |  | 
29 | CCn1c(=O)c(-c2ccc(-c3cncs3)cc2Cl)cc2cnc(Nc3ccc(N4CCN(C)CC4)cc3)nc21 [FRAX597] | ++ (++: growth ≥80% compared to no treatment) | ++ (++: growth ≥80% compared to no treatment) |  |  | 
30 | Fc1ccc(-c2nn3ccccc3c2-c2ccncc2)cc1 [GW434756X] | ++ (++: growth ≥80% compared to no treatment) | ++ (++: growth ≥80% compared to no treatment) |  |  | 
31 | CCN1C(=O)CNc2ncc(-c3ccc(-c4nc[nH]n4)nc3C)nc21 [CC + 115] | ++ (++: growth ≥80% compared to no treatment) | ++ (++: growth ≥80% compared to no treatment) |  |  | 
32 | NC(=O)c1ccc(-c2nc(-c3ccc4c(c3)OCCO4)c(-c3ccccn3)[nH]2)cc1 [D4476] | ++ (++: growth ≥80% compared to no treatment) | ++ (++: growth ≥80% compared to no treatment) |  |  | 
33 | Nc1ncnc2c1c(I)cn2[C@@H]1O[C@H](CO)[C@@H](O)[C@H]1O [5 + iodo tubercidin] | + (+: growth ≤60% compared to no treatment) | ++ (++: growth ≥80% compared to no treatment) |  |  | 
34 | O=C1NC(=O)C(c2cnc3ccccn23)=C1c1cn2c3c(cc(F)cc13)CN(C(=O)N1CCCCC1)CC2 [LY2090314] |  | ++ (++: growth ≥80% compared to no treatment) | > 80 |  | 
35 | NS(=O)(=O)c1ccc(N/N=C2\C(=O)Nc3ccc(C(=O)NCCc4c[nH]cn4)cc32)cc1 [GW300660X] | ++ (++: growth ≥80% compared to no treatment) | ++ (++: growth ≥80% compared to no treatment) |  |  | 
36 | Cc1ccc(-c2csc3ncnc(SCCC(=O)O)c23)cc1 [TTP 22] | ++ (++: growth ≥80% compared to no treatment) | ++ (++: growth ≥80% compared to no treatment) |  |  | 
37 | Cn1cnc2c(F)c(Nc3ccc(Br)cc3Cl)c(C(=O)NOCCO)cc21 [selumetinib] |  | ++ (++: growth ≥80% compared to no treatment) | > 80 |  | 
38 | COc1cc2c(Nc3cccc(NC(=O)c4ccccc4)c3)ncnc2cc1OCCCN1CCOCC1 [GSK223810A] |  | ++ (++: growth ≥80% compared to no treatment) | > 80 |  | 
39 | SR + 3677 | ++ (++: growth ≥80% compared to no treatment) | ++ (++: growth ≥80% compared to no treatment) |  |  | 
40 | Nc1ccc(-c2ccc3ncc4ccc(=O)n(-c5cccc(C(F)(F)F)c5)c4c3c2)cn1 [Torin 2] | ++ (++: growth ≥80% compared to no treatment) | ++ (++: growth ≥80% compared to no treatment) |  |  | 
41 | CNC(=O)c1cc(Oc2ccc(NC(=O)Nc3ccc(Cl)c(C(F)(F)F)c3)cc2)ccn1 [Sorafenib] |  | ++ (++: growth ≥80% compared to no treatment) | > 80 |  | 
42 | PF + 670462 | ++ (++: growth ≥80% compared to no treatment) | ++ (++: growth ≥80% compared to no treatment) |  |  | 
43 | Cn1cc(C2=C(c3ccc(Cl)cc3Cl)C(=O)NC2=O)c2ccccc21 [SB 216763] |  | ++ (++: growth ≥80% compared to no treatment) | > 80 |  | 
44 | O=C1NCCc2[nH]c(-c3ccncc3)cc21 [PHA + 767491] | ++ (++: growth ≥80% compared to no treatment) | ++ (++: growth ≥80% compared to no treatment) |  |  | 
45 | O=c1ncn2nc(Sc3ccc(F)cc3F)ccc2c1-c1c(Cl)cccc1Cl [VX + 745] | ++ (++: growth ≥80% compared to no treatment) | ++ (++: growth ≥80% compared to no treatment) |  |  | 
